{
  "source": "patent US4004976A",
  "about": "“Process for recovering the main sapogenins from the roots of rhizomes of helleborus” (Deutsche Gold- und Silber-Scheideanstalt vormals Roessler, priority 1974, dated 1977)",
  "key": {"[1]": {"experiment": "Acute toxicity, LD 50 (method of Miller and Tainter)", "conditions": "in vivo; mouse, oral application", "procedure": "The acute toxicity of the compound of the invention in the mouse (expressed by LD 50 mg/kg; method of Miller and Tainter; Proc. Soc. Exper. Biol. a. Med. Vol. 57 (1944) pages 261 et seq.) on oral application, for example, is above 6000 mg/kg."}, "[2]": {"tested_on": "indometacin ulcer of rats", "experiment": "Indometacin ulcer of rats (method of John and Adrian modified by Wilhelmi), ulcer protecting effect", "assay_type": "in vivo, rat (albino rats of the strain SIV 50)", "conditions": "for Ulcer Protecting Effect: oral, 1 h after indometacin 20 mg/kg, evaluated 24 h after indometacin", "procedure": "These tests were carried out according to the method of John and Adrian modified by Wilhelmi on the indometacin ulcer of rats (see Arneimittelforschung Vol. 19 (1969) pages 45 et seq.)\nThe determination is carried out in the following manner.\nAlbino rats of the strain SIV 50 (S. Ivanovas, Kisslegg/Allgau) having an initial weight of 250 to 300 grams were held in controlled temperature rooms at 20° to 22° C. in wire cages (Ebeco, Type 3 double width) on a standard diet (Altromin). After 48-hour feeding intervals the animals received 20 mg/kg rat of indometacin in 1.5% tragacanth (1 ml tragacanth solution per 100 grams of rat) applied intragastrally.\nOne hour after giving the indometacin there was dispensed orally to the animals the test substance. The rats remain otherwise fasting (water ad libitum).\nTwenty-four hours after giving the indometacin the animals were killed with CO2. The stomach was resected, opened along the great curvature and washed under flowing water.\nThe ulcerative changes appear as dark, point or stria shaped spots on the mucosa. The evaluation was done according to the method of Munchow, Arneimittelforschung Vol. 4 (1954) pages 341-344."}, "central nervous system": {"tested_on": "central nervous system", "experiment": "Muscle relaxing and central nervous system influencing activity", "conditions": "in words, no test described"}},
  "data": [
    {"smiles": "C=C1CC[C@@]2(OC1)O[C@H]1C[C@H]3[C@@H]4CC=C5C[C@@H](O)C[C@@H](O)[C@]5(C)[C@H]4[C@H](O)C[C@]3(C)[C@H]1[C@@H]2C", "note": "[compound of the invention, spiro-5,25(27)-diene-1β,3β,11α-triol]", "values": [
      {"measurement": "LD50", "setting": "[1]", "result": "> 6000", "unit": "mg/kg"},
      {"measurement": "Ulcer Protecting Effect", "setting": "[2]; Daily Dosage 50 mg/kg, rat", "result": 58, "unit": "%"},
      {"measurement": "Ulcer Protecting Effect", "setting": "[2]; Daily Dosage 100 mg/kg, rat", "result": 78, "unit": "%"},
      {"measurement": "Ulcer Protecting Effect", "setting": "[2]; Daily Dosage 200 mg/kg, rat", "result": 80, "unit": "%"},
      {"measurement": "ulcer healing activity", "setting": "[2]; in words", "result": "has an ulcer healing activity"},
      {"measurement": "antiulcer activity", "setting": "[2]; indometacin ulcers of rats, in words", "result": "good antiulcer activity"},
      {"measurement": "minimal effective dose", "setting": "[2]; po, 24 h, orally, indometacin ulcer, rat, read-out: lowest effective dosage", "result": 50, "unit": "mg/kg"},
      {"measurement": "antiulcer activity compared with Biogastrone", "setting": "[2]; versus known medicine Biogastrone, in words", "result": "comparable to the activity of the known medicine Biogastrone"},
      {"measurement": "muscle relaxing and central nervous system influencing activity", "setting": "central nervous system", "result": "muscle relaxing and central nervous system influencing activity has been established"}
    ]}
  ]
}
